Test results published in paper PMC8151276, “An Integrated Approach toward NanoBRET Tracers for Analysis of GPCR Ligand Engagement” (Molecules, 2021).

Legend:
Type in all cases: binding
AGTR2 = biological target: T1, AGTR2 (Homo sapiens, UniProt P50052); experiment: NanoBRET screen HiBiT-AGTR2 in HEK293
T1 construct: purchased Promega (in-house HiBiT-GPCR construct library, NanoBRET)
T1 sequence (P50052 1-363): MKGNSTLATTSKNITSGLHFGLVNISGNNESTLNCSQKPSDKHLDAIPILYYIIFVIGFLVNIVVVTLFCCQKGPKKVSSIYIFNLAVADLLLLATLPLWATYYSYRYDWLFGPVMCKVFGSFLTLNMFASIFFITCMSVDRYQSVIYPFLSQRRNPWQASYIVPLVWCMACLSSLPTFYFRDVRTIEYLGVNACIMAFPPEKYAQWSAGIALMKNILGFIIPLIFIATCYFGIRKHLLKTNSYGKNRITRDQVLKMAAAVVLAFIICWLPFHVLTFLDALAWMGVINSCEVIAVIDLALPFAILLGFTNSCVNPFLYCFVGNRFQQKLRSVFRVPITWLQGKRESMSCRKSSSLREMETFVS
Experimental: (§1) Each tracer candidate was screened across the entire library of HiBiT-GPCR constructs using NanoBRET as the detection modality. As depicted in Figure 4A, the specificity of interactions was evaluated through decrease in BRET due to competitive displacement of a bound tracer by excess parental compound. Each tracer was analyzed for binding to each HiBiT-GPCR fusion in the absence and in the presence of competing parental compound. Briefly, HEK293 cells were transfected with HiBiT-GPCR constructs diluted into promoterless DNA to reduce expression and maximize translocation to the cell surface. Each tracer candidate was then screened at concentrations of 1 μM and 0.1 μM across cells expressing these fusions. Cells were treated for 1.5 h with tracer either alone or in the presence of 20 μM competing parental compound (i.e., control). BRET was measured upon addition of purified LgBiT and subsequent complementation with HiBiT genetically fused to a GPCR. The specificity of interactions was assessed through a decrease in BRET signal due to competitive displacement of the bound tracer. To further gauge the robustness of these interactions, the fold response over the control (i.e., BRETtracer/BRETcontrol) was calculated. We chose a 1.5-fold response, which translates to ≥7-fold signal over noise as the minimal threshold required to score an interaction as positive. […]. Below we highlight the screening results obtained for our exemplary fluorescent tracers based on Clozapine, Amitriptyline and AZD1283.
(§2) HiBiT-GPCR DNA constructs were diluted in 10 mM Tris pH 8 to a final concentration of 0.01 μg/μL, arrayed in 96-well plates and stored at −20 °C. For transfection, HEK293 cells were suspended in Opti-MEM (without phenol red) supplemented with 2% fetal bovine serum (Seradigm) and 100 units/mL penicillin–streptomycin (Gibco) at a final concentration of 220,000 cells/mL and dispensed into white 96-well plates at 90 μL/well. Subsequent transfections and screens were carried using an Agilent Bravo Automated Liquid Handling Platform. First, the 96-well HiBiT DNA arrays were diluted 25-fold in Opti-MEM (without serum or phenol red) to a final concentration of 0.0004 μg/μL and 20 μL of the diluted DNAs were transferred into new 96-well plates. Next, promoterless carrier DNA (1 μg/μL) was diluted 25-fold (0.04 μg/μL) and then dispensed into the diluted arrays at 20 μL/well. Following brief mixing, Viafect transfection reagent (Promega) diluted 16-fold into Opti-MEM was dispensed into the plates at 40 μL/well. After mixing by pipetting, plates were incubated for 10 min on the pipetting station deck. The DNA-transfection reagent complexes were then added to plates containing cells. To facilitate the screen, 10 μL of DNA-transfection reagent complexes were added in duplicates to the top 4 and bottom 4 rows, resulting in two identical 48-well arrays per plate. Plates with transfected cells were incubated for 18–20 h at 37 °C/5% CO2. A screen of each tracer across the entire library using two different concentrations requires duplicate plates of transfected cells. Depending on the number of tracers being screened, transfections can be scaled up using the same ratios. The next day, for each tracer, four 20× screening solutions in tracer dilution buffer (Promega) were prepared: two duplicates at final concentration of 20 μM and two duplicates at a final concentration of 2 μM. A competing unmodified compound was added to one of each duplicate at a final concentration of 400 μM. The four resulting solutions were diluted 4-fold in Opti-MEM without serum or phenol red to generate 5× solutions (5 µM and 0.5 µM tracer +/− 100 μM competing compound). To screen the library, a BioTek MultiFlo FX liquid dispenser was used to dispense 22.5 µL of tracer solution to the top 4 rows and 22.5 µL tracer + competing compound solution to the 4 bottom rows. Plates were briefly mixed on an orbital shaker and incubated for 1.5 h at room temperature. […]

HTR1B = biological target: T2, HTR1B (Homo sapiens, UniProt P28222); experiment: NanoBRET screen HiBiT-HTR1B in HEK293
T2 construct: purchased Promega (in-house HiBiT-GPCR construct library, NanoBRET)
T2 sequence (P28222 whole entry): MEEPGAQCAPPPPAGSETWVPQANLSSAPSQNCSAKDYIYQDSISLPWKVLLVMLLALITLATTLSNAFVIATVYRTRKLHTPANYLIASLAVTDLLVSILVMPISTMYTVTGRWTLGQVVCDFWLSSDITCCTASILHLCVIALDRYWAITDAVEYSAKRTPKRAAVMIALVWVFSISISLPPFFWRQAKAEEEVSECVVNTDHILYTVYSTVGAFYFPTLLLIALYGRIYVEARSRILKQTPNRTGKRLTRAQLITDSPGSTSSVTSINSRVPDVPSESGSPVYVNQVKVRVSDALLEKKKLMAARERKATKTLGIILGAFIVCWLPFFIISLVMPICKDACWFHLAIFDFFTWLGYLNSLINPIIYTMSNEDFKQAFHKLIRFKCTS
Experimental: as §1, §2

FPR3 = biological target: T3, FPR3 (Homo sapiens, UniProt P25089); experiment: NanoBRET screen HiBiT-FPR3 in HEK293
T3 construct: purchased Promega (in-house HiBiT-GPCR construct library, NanoBRET)
T3 sequence (P25089 1-353): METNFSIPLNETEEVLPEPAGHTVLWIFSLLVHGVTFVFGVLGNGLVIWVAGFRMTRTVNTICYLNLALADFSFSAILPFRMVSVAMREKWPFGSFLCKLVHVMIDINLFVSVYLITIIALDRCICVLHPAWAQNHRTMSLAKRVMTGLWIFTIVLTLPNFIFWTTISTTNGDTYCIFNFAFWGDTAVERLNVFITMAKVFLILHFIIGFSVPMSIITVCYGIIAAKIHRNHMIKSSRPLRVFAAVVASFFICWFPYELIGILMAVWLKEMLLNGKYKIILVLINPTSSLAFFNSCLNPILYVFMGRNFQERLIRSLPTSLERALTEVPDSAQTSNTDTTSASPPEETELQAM
Experimental: as §1, §2

GALR1 = biological target: T4, GALR1 (Homo sapiens, UniProt P47211); experiment: NanoBRET screen HiBiT-GALR1 in HEK293
T4 construct: purchased Promega (in-house HiBiT-GPCR construct library, NanoBRET)
T4 sequence (P47211 1-349): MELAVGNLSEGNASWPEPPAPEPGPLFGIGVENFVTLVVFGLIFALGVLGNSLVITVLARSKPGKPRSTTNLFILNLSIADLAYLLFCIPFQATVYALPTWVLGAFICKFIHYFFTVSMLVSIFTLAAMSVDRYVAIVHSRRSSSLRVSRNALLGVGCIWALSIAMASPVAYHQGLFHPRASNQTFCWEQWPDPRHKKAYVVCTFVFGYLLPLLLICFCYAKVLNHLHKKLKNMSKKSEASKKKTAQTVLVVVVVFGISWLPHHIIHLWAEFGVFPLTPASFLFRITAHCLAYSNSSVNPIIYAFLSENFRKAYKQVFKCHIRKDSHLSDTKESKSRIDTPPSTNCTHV
Experimental: as §1, §2

GRM1 = biological target: T5, GRM1 (Homo sapiens, UniProt Q13255); experiment: NanoBRET screen HiBiT-GRM1 in HEK293
T5 construct: purchased Promega (in-house HiBiT-GPCR construct library, NanoBRET)
T5 sequence (Q13255 19-1194): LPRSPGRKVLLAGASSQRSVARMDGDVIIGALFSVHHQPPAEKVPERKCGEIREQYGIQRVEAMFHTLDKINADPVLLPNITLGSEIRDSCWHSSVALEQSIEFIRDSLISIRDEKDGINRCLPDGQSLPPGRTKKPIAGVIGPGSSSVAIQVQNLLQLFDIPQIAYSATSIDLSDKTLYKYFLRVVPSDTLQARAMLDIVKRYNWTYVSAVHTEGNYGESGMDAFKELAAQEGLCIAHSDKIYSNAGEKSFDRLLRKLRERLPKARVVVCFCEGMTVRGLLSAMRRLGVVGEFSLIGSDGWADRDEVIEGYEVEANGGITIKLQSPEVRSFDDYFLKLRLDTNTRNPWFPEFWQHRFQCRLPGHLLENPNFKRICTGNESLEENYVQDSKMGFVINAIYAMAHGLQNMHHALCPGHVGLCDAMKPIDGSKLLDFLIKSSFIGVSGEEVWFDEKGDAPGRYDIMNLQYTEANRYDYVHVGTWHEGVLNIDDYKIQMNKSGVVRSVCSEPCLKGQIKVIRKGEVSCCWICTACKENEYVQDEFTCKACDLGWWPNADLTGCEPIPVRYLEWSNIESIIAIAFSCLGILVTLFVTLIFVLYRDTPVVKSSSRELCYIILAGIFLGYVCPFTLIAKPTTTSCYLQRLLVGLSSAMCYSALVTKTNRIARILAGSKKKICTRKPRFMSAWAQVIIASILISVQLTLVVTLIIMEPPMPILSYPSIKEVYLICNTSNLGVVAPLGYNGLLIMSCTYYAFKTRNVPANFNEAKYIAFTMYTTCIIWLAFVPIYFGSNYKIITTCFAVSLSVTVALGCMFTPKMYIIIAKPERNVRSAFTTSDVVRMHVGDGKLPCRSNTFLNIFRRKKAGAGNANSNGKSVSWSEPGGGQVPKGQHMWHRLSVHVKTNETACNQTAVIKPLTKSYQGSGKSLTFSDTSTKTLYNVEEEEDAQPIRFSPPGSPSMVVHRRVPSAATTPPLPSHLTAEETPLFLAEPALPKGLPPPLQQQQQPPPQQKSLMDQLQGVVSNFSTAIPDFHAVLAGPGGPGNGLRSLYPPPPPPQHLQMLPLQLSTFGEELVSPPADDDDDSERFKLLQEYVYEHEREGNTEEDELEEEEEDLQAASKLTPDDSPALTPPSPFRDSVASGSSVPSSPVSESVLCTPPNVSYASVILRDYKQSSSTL
Experimental: as §1, §2

COc1ccc2c(n1)c(CCNC(C)=O)cn2CCNC(=O)CCc1ccc2n1[B-](F)(F)[N+]1=C(c3ccc[nH]3)C=CC1=C2 [Azamelatonin-1-NB590]
NanoBRET Fold Response (AGTR2; 0.1μM tracer): 1.23 | NanoBRET Fold Response (AGTR2; 1μM tracer): 0.87 | NanoBRET Fold Response (HTR1B; 0.1μM tracer): 0.74 | NanoBRET Fold Response (HTR1B; 1μM tracer): 0.74 | NanoBRET Fold Response (FPR3; 0.1μM tracer): 0.85 | NanoBRET Fold Response (FPR3; 1μM tracer): 1.06 | NanoBRET Fold Response (GALR1; 0.1μM tracer): 1.06 | NanoBRET Fold Response (GALR1; 1μM tracer): 1.00 | NanoBRET Fold Response (GRM1; 0.1μM tracer): 1.27 | NanoBRET Fold Response (GRM1; 1μM tracer): 0.47

CC(C)N(CC[C@H](c1ccccc1)c1cc(CCNC(=O)c2ccc(CNC(=O)CCc3ccc4n3[B-](F)(F)[N+]3=C(c5ccc[nH]5)C=CC3=C4)cc2)ccc1O)C(C)C [Tolterodine-BZ-NB590]
NanoBRET Fold Response (AGTR2; AGTR2, tracer 0.1μM): 0.96 | NanoBRET Fold Response (AGTR2; AGTR2, tracer 1μM): 0.95 | NanoBRET Fold Response (HTR1B; HTR1B, tracer 0.1μM): 1.12 | NanoBRET Fold Response (HTR1B; HTR1B, tracer 1μM): 1.33 | NanoBRET Fold Response (FPR3; FPR3, tracer 0.1μM): 0.71 | NanoBRET Fold Response (FPR3; FPR3, tracer 1μM): 0.93 | NanoBRET Fold Response (GALR1; GALR1, tracer 0.1μM): 0.95 | NanoBRET Fold Response (GALR1; GALR1, tracer 1μM): 1.07 | NanoBRET Fold Response (GRM1; GRM1, tracer 0.1μM): 0.88 | NanoBRET Fold Response (GRM1; GRM1, tracer 1μM): 0.19

O=C(CCc1ccc2n1[B-](F)(F)[N+]1=C(c3ccc[nH]3)C=CC1=C2)NCCOCCOCCNC(=O)OCCOCCN1CCN(C2=Nc3ccccc3Sc3ccccc32)CC1 [Quetiapine-a-2-NB590]
NanoBRET Fold Response (AGTR2; AGTR2, tracer 0.1μM): 1.08 | NanoBRET Fold Response (AGTR2; AGTR2, tracer 1μM): 1.05 | NanoBRET Fold Response (HTR1B; HTR1B, tracer 0.1μM): 1.03 | NanoBRET Fold Response (HTR1B; HTR1B, tracer 1μM): 1.58 | NanoBRET Fold Response (FPR3; FPR3, tracer 0.1μM): 1.28 | NanoBRET Fold Response (FPR3; FPR3, tracer 1μM): 0.66 | NanoBRET Fold Response (GALR1; GALR1, tracer 0.1μM): 1.02 | NanoBRET Fold Response (GALR1; GALR1, tracer 1μM): 0.76 | NanoBRET Fold Response (GRM1; GRM1, tracer 0.1μM): 0.74 | NanoBRET Fold Response (GRM1; GRM1, tracer 1μM): 1.00

Cc1cc2c(s1)Nc1ccccc1N=C2N1CCN(CCCNC(=O)CCOCCOCCOCCOCCNC(=O)CCc2ccc3n2[B-](F)(F)[N+]2=C(c4ccc[nH]4)C=CC2=C3)CC1 [Olanzapine-a-2-NB590]
NanoBRET Fold Response (AGTR2; AGTR2, tracer 0.1μM): 1.12 | NanoBRET Fold Response (AGTR2; AGTR2, tracer 1μM): 0.87 | NanoBRET Fold Response (HTR1B; HTR1B, tracer 0.1μM): 2.53 | NanoBRET Fold Response (HTR1B; HTR1B, tracer 1μM): 2.81 | NanoBRET Fold Response (FPR3; FPR3, tracer 0.1μM): 0.92 | NanoBRET Fold Response (FPR3; FPR3, tracer 1μM): 0.96 | NanoBRET Fold Response (GALR1; GALR1, tracer 0.1μM): 1.03 | NanoBRET Fold Response (GALR1; GALR1, tracer 1μM): 1.09 | NanoBRET Fold Response (GRM1; GRM1, tracer 0.1μM): 0.89 | NanoBRET Fold Response (GRM1; GRM1, tracer 1μM): 1.26

O=C(CCc1ccc2n1[B-](F)(F)[N+]1=C(c3ccc[nH]3)C=CC1=C2)NCc1ccc(C(=O)NCCOCCOCCNCC(O)COc2cccc3ccccc23)cc1 (centres unmarked) [Propranolol-3-NB590]
NanoBRET Fold Response (AGTR2; AGTR2, 0.1μM): 0.95 | NanoBRET Fold Response (AGTR2; AGTR2, 1μM): 0.99 | NanoBRET Fold Response (HTR1B; HTR1B, 0.1μM): 0.99 | NanoBRET Fold Response (HTR1B; HTR1B, 1μM): 1.06 | NanoBRET Fold Response (FPR3; FPR3, 0.1μM): 1.03 | NanoBRET Fold Response (FPR3; FPR3, 1μM): 1.03 | NanoBRET Fold Response (GALR1; GALR1, 0.1μM): 1.02 | NanoBRET Fold Response (GALR1; GALR1, 1μM): 0.96 | NanoBRET Fold Response (GRM1; GRM1, 0.1μM): 0.72 | NanoBRET Fold Response (GRM1; GRM1, 1μM): 0.69

N#CN/C(=N\CCNC(=O)c1ccc(N)cc1)NCCCOc1cccc(CN2CCCCC2)c1 [Aminopotentidine (unmodified)]
NanoBRET Fold Response (HTR1B; HTR1B, other tracers/Aminopotentidine (unmodified), 0.1μM): 1.50 | NanoBRET Fold Response (HTR1B; HTR1B, other tracers/Aminopotentidine (unmodified), 1μM): 1.48

CN1CCN(C2=Nc3cc(Cl)ccc3N(CC(=O)NCCOCCOCCOCCOCCNC(=O)CCc3ccc4n3[B-](F)(F)[N+]3=C(c5ccc[nH]5)C=CC3=C4)c3ccccc32)CC1 [Clozapine-c-2-NB590]
NanoBRET Fold Response (AGTR2; AGTR2, 0.1μM tracer): 0.98 | NanoBRET Fold Response (AGTR2; AGTR2, 1μM tracer): 0.98 | NanoBRET Fold Response (HTR1B; HTR1B, 0.1μM tracer): 0.95 | NanoBRET Fold Response (HTR1B; HTR1B, 1μM tracer): 1.47 | NanoBRET Fold Response (FPR3; FPR3, 0.1μM tracer): 1.08 | NanoBRET Fold Response (FPR3; FPR3, 1μM tracer): 1.01 | NanoBRET Fold Response (GALR1; GALR1, 0.1μM tracer): 1.02 | NanoBRET Fold Response (GALR1; GALR1, 1μM tracer): 1.03 | NanoBRET Fold Response (GRM1; GRM1, 0.1μM tracer): 0.99 | NanoBRET Fold Response (GRM1; GRM1, 1μM tracer): 1.00

CN(CCC=C1c2ccccc2CCc2ccccc21)C(=O)CCOCCOCCOCCOCCNC(=O)CCc1ccc2n1[B-](F)(F)[N+]1=C(c3ccc[nH]3)C=CC1=C2 [Amitriptyline-e-2-NB590]
NanoBRET Fold Response (AGTR2; tracer at 1μM): 0.97 | NanoBRET Fold Response (HTR1B; tracer at 1μM): 1.01

CN(C)CCC=C1c2ccccc2CCc2ccc(C(=O)NCCNC(=O)CCOCCOCCOCCOCCNC(=O)CCc3ccc4n3[B-](F)(F)[N+]3=C(c5ccc[nH]5)C=CC3=C4)cc21 [Amitriptyline-a-2-NB590]
NanoBRET Fold Response (AGTR2; tracer at 0.1μM): 1.01 | NanoBRET Fold Response (AGTR2; tracer at 1μM): 0.98 | NanoBRET Fold Response (HTR1B; tracer at 0.1μM): 0.98 | NanoBRET Fold Response (FPR3; tracer at 0.1μM): 0.96 | NanoBRET Fold Response (FPR3; tracer at 1μM): 1.07 | NanoBRET Fold Response (GALR1; tracer at 0.1μM): 1.05 | NanoBRET Fold Response (GALR1; tracer at 1μM): 0.97
